Data on ten compounds can be found in ChEMBL document CHEMBL1201862, “PubChem BioAssay data set” (2004).

Test systems include 786-0; U-251; NCI-H226; UO-31; MOLT-4; COLO 205; T47D; TK-10; SF-295; SK-MEL-5; Hs-578T; A498; DU-145; UACC-257; CAKI-1; MDA-N; MDA-MB-435; SNB-19; SK-MEL-28; SNB-75.
Holding throughout (assay): NCI tumour cell line growth inhibition, 48 h

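Protocol summary: plate cells (96-well), add compound at 5 concentrations, incubate 48 h, interpolate endpoints linearly. GI50: concentration for 50% inhibition of growth.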 The source made the active and inactive calls. Cut-off read from the data, not from the text of the source: active = GI50 up to about 1.1 µM and inactive = higher. A value given as a limit tells only on which side of the number the result lay.

For `COc1c(-c2ccc(F)cc2)oc2c(CC(=O)O)cccc2c1=O`, the GI50 was > 100 µM (inactive) in the assay on 786-0; > 100 µM (inactive) with U-251; > 100 µM (inactive) with NCI-H226; 40.9 µM (inactive) in the assay with UO-31; > 100 µM (inactive) in the assay with MOLT-4; > 100 µM (inactive) with COLO 205. For the same compound, the GI50 with T47D, in the assay with TK-10, with SF-295, with SK-MEL-5, in the assay with Hs-578T and in the assay on A498 was > 100 µM (inactive) each time. Moreover, the GI50 in the assay on DU-145 is > 100 µM (inactive); in the assay on UACC-257 it was > 100 µM (inactive); with CAKI-1 it was 22.3 µM (inactive); in the assay with MDA-N it was > 100 µM (inactive); in the assay on MDA-MB-435, > 100 µM (inactive).

With `COc1cc(C2S/C(=C/c3ccccc3)C(=O)N2c2ccc(Cl)c(Cl)c2)cc(OC)c1OC` (stereo unspecified), the GI50 is 70.6 µM (inactive) in the assay on 786-0; 38.7 µM (inactive) with U-251; 29.4 µM (inactive) with NCI-H226; 33.3 µM (inactive) with UO-31; 28.8 µM (inactive) in the assay on MOLT-4; 46.6 µM (inactive) in the assay on COLO 205. In addition, the GI50 in the assay on T47D is > 100 µM (inactive); with TK-10 it was > 100 µM (inactive); with SF-295 it was 15.8 µM (inactive); in the assay on SK-MEL-5, 30.1 µM (inactive); in the assay with SNB-19 it was 59.2 µM (inactive); in the assay with Hs-578T it was 15 µM (inactive). Also, the GI50 is > 42.4 µM (inactive) in the assay with A498; 38.7 µM (inactive) in the assay on DU-145; > 70.6 µM (inactive) with UACC-257; > 70.8 µM (inactive) in the assay on CAKI-1; 19.8 µM (inactive) in the assay on MDA-N; 7.29 µM (inactive) in the assay on MDA-MB-435. The GI50 in the assay with SK-MEL-28 is 17.1 µM (inactive).

With `COC1CC(OC2C(C)OC(OC3C(C)OC(OC4C(C)OC(O[C@H]5CC[C@@]6(C)C(=CC[C@]7(O)[C@@H]6C[C@@H](O)[C@@]6(C)[C@]7(O)CC[C@@]6(O)C(C)=O)C5)CC4OC)CC3OC)CC2OC)OC(C)C1O` (stereo partly specified), the GI50 in the assay on 786-0 is > 12.5 µM (inactive); in the assay with U-251, > 12.5 µM (inactive); in the assay on NCI-H226, > 12.5 µM (inactive); with UO-31 it was 12.4 µM (inactive); in the assay with MOLT-4 it was > 12.5 µM (inactive); with COLO 205, > 12.5 µM (inactive). The GI50 in the assay with T47D, in the assay on TK-10, with SF-295, with SK-MEL-5, with SNB-19 and with SNB-75 was > 12.5 µM (inactive) in each case. Further, the GI50 with Hs-578T, in the assay on DU-145, in the assay on UACC-257, with CAKI-1, in the assay with MDA-N and in the assay with MDA-MB-435 was > 12.5 µM (inactive) in each case. Further, the GI50 in the assay with SK-MEL-28 is > 12.5 µM (inactive).

With `O=S1(=O)OCCOS(=O)(=O)C1F`, the GI50 in the assay with 786-0, in the assay with U-251, in the assay with NCI-H226, in the assay with UO-31, with MOLT-4 and with COLO 205 was > 100 µM (inactive) in each case. In addition, the GI50 in the assay with T47D, in the assay with TK-10, in the assay with SF-295, in the assay on SK-MEL-5, in the assay with SNB-19 and in the assay on SNB-75 was > 100 µM (inactive) each time. Also, the GI50 with Hs-578T, in the assay on DU-145, with UACC-257, in the assay on CAKI-1, with MDA-N and in the assay with MDA-MB-435 was > 100 µM (inactive) each time. Also, in the assay with SK-MEL-28, the GI50 is > 100 µM (inactive).

Consider `Nc1nc(N)c2c3c(cnc2n1)CC(c1ccccc1)CC3` (stereo unspecified), for which the GI50 in the assay with 786-0 is 7.83 µM (inactive); with U-251, 10.7 µM (inactive); in the assay with NCI-H226 it was 93.1 µM (inactive); with MOLT-4, 50.5 µM (inactive); in the assay with COLO 205 it was 35 µM (inactive); in the assay on T47D, 23.9 µM (inactive). Further, the GI50 with TK-10 was 21.7 µM (inactive); in the assay with SF-295, 10.1 µM (inactive); in the assay on SK-MEL-5, 1.01 µM (active); in the assay on SNB-19, 13.6 µM (inactive); in the assay on SNB-75, 16.4 µM (inactive); in the assay with Hs-578T, 30.2 µM (inactive). Moreover, the GI50 in the assay on A498 is 24.8 µM (inactive); in the assay with DU-145, 25.4 µM (inactive); in the assay with UACC-257, 65.3 µM (inactive); in the assay on CAKI-1, 28.1 µM (inactive); in the assay with MDA-N, 3.7 µM (inactive); in the assay with MDA-MB-435, 6.76 µM (inactive). The GI50 in the assay with SK-MEL-28 is 35.6 µM (inactive).

For the compound `COc1cc2c(cc1OC)C(=O)N(c1ccc(O)cc1)C2=O`, the GI50 in the assay with 786-0, with U-251, in the assay on NCI-H226, with MOLT-4, in the assay with COLO 205 and in the assay with T47D was > 100 µM (inactive) each time. Besides, the GI50 in the assay on TK-10, in the assay on SF-295, in the assay on SK-MEL-5, in the assay on SNB-19, in the assay on Hs-578T and in the assay on A498 was > 100 µM (inactive) in each case. Besides, the GI50 in the assay with DU-145, in the assay on UACC-257, in the assay with CAKI-1, in the assay on MDA-N, in the assay with MDA-MB-435 and in the assay on SK-MEL-28 was > 100 µM (inactive) in each case.

For `Cc1nc2c(sc(=S)n2-c2ccccc2)c2nc3ncccc3n12`, the GI50 was 35.2 µM (inactive) in the assay on 786-0; 32.6 µM (inactive) in the assay on U-251; > 100 µM (inactive) in the assay on UO-31; > 100 µM (inactive) with MOLT-4; > 100 µM (inactive) in the assay on COLO 205; > 100 µM (inactive) in the assay on T47D. Further, the GI50 in the assay on TK-10 is 33.7 µM (inactive); with SF-295 it was 77.4 µM (inactive); with SK-MEL-5, > 100 µM (inactive); in the assay on SNB-19 it was 54.5 µM (inactive); in the assay on SNB-75 it was 23.6 µM (inactive); in the assay with Hs-578T, > 100 µM (inactive). In addition, the GI50 with A498, in the assay with DU-145, with UACC-257, with CAKI-1, in the assay on MDA-N and in the assay with MDA-MB-435 was > 100 µM (inactive) in each case. For the same compound, the GI50 in the assay on SK-MEL-28 is > 100 µM (inactive).

On to `COC(=O)NC1C(C)OC(OC2C/C=C(/C)C3C=CC4C(OC5CC(OC6CC(OC7CC(O)C(O)C(C)O7)C(OC7CC(O)C(OC)C(C)O7)C(C)O6)C(O)C(C)O5)C(C)CC(C)C4C3(C)C(=O)C3=C(O)C4(CC(C)C(CO)=CC4/C=C\2C)OC3=O)CC1(C)[N+](=O)[O-]` (stereo unspecified), for which the GI50 in the assay with 786-0 was 2.44 µM (inactive); in the assay on U-251, 3.84 µM (inactive); in the assay on UO-31 it was 22.9 µM (inactive); in the assay with MOLT-4, 6.15 µM (inactive); with COLO 205, 11.3 µM (inactive); in the assay on T47D, 7.78 µM (inactive). Moreover, the GI50 in the assay with TK-10 was 16.6 µM (inactive); in the assay with SF-295 it was 4.6 µM (inactive); in the assay with SK-MEL-5 it was 5.22 µM (inactive); in the assay with SNB-19, 21.2 µM (inactive); in the assay with SNB-75 it was 2.47 µM (inactive); in the assay on Hs-578T it was 6.85 µM (inactive). Further, the GI50 in the assay on A498 is 25.6 µM (inactive); in the assay on DU-145, 6.73 µM (inactive); in the assay on UACC-257, 9.89 µM (inactive); in the assay on CAKI-1, 16 µM (inactive); with MDA-N, 14 µM (inactive); in the assay on MDA-MB-435 it was 9.64 µM (inactive). Besides, the GI50 in the assay with SK-MEL-28 was 8.34 µM (inactive).

On to `NC(=O)CNC(=O)[C@@H]1CC(OCCC(=O)O)CN1C(=O)C1CCCN1C(=O)OCc1ccccc1` (stereo partly specified), for which the GI50 with 786-0, in the assay with U-251, with NCI-H226, in the assay on UO-31, in the assay with MOLT-4 and in the assay with COLO 205 was > 100 µM (inactive) each time. Further, the GI50 in the assay on T47D, in the assay with TK-10, with SF-295, in the assay with SK-MEL-5, in the assay on SNB-19 and in the assay on SNB-75 was > 100 µM (inactive) each time. Further, the GI50 in the assay with Hs-578T, in the assay on A498, in the assay with DU-145, in the assay with UACC-257, in the assay on MDA-N and in the assay with MDA-MB-435 was > 100 µM (inactive) throughout. Also, the GI50 with SK-MEL-28 was > 100 µM (inactive).

Consider `Clc1ccc(COC(Cn2ccnc2)c2ccc(Cl)cc2Cl)cc1` (stereo unspecified) [ECONAZOLE NITRATE], for which the GI50 in the assay with 786-0 was 12.6 µM (inactive); with U-251, 12.6 µM (inactive); in the assay on UO-31, 3.41 µM (inactive); in the assay on MOLT-4 it was 2.75 µM (inactive); in the assay on COLO 205, 8.28 µM (inactive); in the assay on T47D, 5.42 µM (inactive). Further, the GI50 is 11.4 µM (inactive) in the assay with TK-10; 9.57 µM (inactive) with SF-295; 14.9 µM (inactive) with SNB-19; 15.6 µM (inactive) in the assay on SNB-75; 17.1 µM (inactive) in the assay on Hs-578T; 11.6 µM (inactive) in the assay with A498. The GI50 was 14.4 µM (inactive) in the assay on DU-145; 10.4 µM (inactive) in the assay with UACC-257; 7.31 µM (inactive) in the assay with CAKI-1; 11.9 µM (inactive) in the assay on MDA-N; 9.68 µM (inactive) in the assay with MDA-MB-435; 14.8 µM (inactive) in the assay with SK-MEL-28.
